Assay [1] concerns the target Ribonucleoside-diphosphate reductase RR1 (Homo sapiens) (UniProt P23921+Q7LG56+P31350). Kind of assay: (§1) Inhibition of mammalian ribonucleotide reductase (mRR). It is filed as protein-complex assay.
Assay [2] deals with T1, Ribonucleoside-diphosphate reductase RR1 (Homo sapiens, UniProt P23921+P31350+Q7LG56).
T1 sequence (P23921 whole entry): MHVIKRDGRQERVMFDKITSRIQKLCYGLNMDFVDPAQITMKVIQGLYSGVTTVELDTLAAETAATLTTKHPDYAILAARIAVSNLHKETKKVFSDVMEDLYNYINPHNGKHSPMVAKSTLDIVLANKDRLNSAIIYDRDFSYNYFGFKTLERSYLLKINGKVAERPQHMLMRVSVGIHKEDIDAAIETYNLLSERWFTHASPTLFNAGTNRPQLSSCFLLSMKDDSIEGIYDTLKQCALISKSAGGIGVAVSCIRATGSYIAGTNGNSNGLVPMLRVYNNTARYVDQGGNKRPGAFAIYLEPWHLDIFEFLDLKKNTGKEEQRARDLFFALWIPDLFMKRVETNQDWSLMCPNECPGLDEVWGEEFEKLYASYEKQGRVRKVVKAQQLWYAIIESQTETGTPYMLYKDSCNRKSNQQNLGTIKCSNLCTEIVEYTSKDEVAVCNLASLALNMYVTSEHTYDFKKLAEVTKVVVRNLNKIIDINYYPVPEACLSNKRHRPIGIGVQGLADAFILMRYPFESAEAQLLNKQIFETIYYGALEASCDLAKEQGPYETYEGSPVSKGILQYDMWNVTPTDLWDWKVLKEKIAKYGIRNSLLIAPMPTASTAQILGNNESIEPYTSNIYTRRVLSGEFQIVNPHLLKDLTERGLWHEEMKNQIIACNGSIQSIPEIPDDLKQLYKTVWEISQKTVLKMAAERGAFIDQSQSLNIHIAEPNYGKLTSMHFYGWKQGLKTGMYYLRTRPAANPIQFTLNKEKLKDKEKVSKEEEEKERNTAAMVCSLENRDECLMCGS
T1 sequence (Q7LG56 whole entry): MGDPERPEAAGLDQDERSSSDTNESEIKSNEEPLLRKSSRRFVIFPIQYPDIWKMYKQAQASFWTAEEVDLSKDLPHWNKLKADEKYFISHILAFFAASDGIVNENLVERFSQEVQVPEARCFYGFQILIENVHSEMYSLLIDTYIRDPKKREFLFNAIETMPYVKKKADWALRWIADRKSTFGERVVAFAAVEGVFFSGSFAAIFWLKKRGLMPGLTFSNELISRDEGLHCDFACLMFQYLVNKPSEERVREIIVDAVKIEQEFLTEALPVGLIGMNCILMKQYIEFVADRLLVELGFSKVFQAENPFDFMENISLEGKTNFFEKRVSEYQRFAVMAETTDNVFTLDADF
T1 sequence (P31350 whole entry): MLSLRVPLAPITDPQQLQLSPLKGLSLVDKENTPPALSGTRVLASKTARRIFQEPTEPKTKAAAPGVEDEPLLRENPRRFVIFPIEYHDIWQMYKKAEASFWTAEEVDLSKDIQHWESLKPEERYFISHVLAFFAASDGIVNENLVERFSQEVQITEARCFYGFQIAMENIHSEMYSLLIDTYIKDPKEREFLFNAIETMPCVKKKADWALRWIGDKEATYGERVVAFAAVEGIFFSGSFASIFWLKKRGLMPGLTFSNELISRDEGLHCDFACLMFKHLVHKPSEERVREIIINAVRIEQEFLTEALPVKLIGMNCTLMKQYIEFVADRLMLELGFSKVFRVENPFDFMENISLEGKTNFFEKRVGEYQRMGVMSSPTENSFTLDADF
The assay is described as §1. It is filed as protein-complex assay.

Active and inactive are the calls of the source. The calls are words filed in the database; no cut-off is given here.

Take `CC(C)CO[C@@H]1C[C@@H]2[C@@H]([C@@H](COC(=O)COc3ccc4ccccc4c3)O1)N(CC(=O)N[C@@H](CC(=O)O)C(=O)N[C@@H](Cc1ccccc1)C(=O)O)C[C@H]2O`: the outcome in assay [1] was inactive. `CC(C)CO[C@@H]1C[C@@H]2[C@@H]([C@@H](COC(=O)CCC3c4ccccc4-c4ccccc43)O1)N(CC(=O)N[C@@H](CC(=O)O)C(=O)N[C@@H](Cc1ccccc1)C(=O)O)C[C@H]2O`: the IC50 in assay [2] turned out to be 40 µM. Take `CC(C)CO[C@@H]1C[C@@H]2[C@@H]([C@@H](COC(=O)CCc3ccccc3)O1)N(CC(=O)N[C@@H](CC(=O)O)C(=O)N[C@@H](Cc1ccccc1)C(=O)O)C[C@H]2O`: the outcome in assay [1] was Active. The same measure, in the same setting: the entry for `CC(C)CO[C@@H]1CC[C@H](N(C)CC(=O)N[C@@H](CC(=O)O)C(=O)N[C@@H](Cc2ccccc2)C(=O)O)[C@@H](COC(=O)CCc2ccccc2)O1` is “inactive”; for `CC(C)CO[C@@H]1CC[C@H](N(C)CC(=O)N[C@@H](CC(=O)O)C(=O)N[C@@H](Cc2ccccc2)C(=O)O)[C@@H](COC(=O)CCC2c3ccccc3-c3ccccc32)O1` it is “inactive”.

These data come from ChEMBL document CHEMBL1141205, “Design, synthesis, and evaluation of octahydropyranopyrrole-based inhibitors of mammalian ribonucleotide reductase” (Bioorg Med Chem Lett, 2005).
